Test results published in US20240208898A1, “ENAMINE N-OXIDES: SYNTHESIS AND APPLICATION TO HYPOXIA-RESPONSIVE PRODRUGS AND IMAGING AGENTS” (DANA-FARBER CANCER INSTITUTE, INC., priority 2021, published 2024).

System: series of cancer cell lines
Test: In-gel fluorescence labeling profile in a series of cancer cell lines
Format: cell-based
Protocol: Cells were seeded at a density of 200,000 cells per well in media [2 mL, RPMI (A431, H460, HeLa, Bx-PC3, MDA-MB-231) or DMEM (U251) supplemented with 5% heat-inactivated human serum (Sigma), penicillin (100 units/mL), and streptomycin (0.1 mg/mL)] in 6-well plates. Cells were incubated at 37° C. under ambient atmosphere with 5% CO2. After 24 h, the media was aspirated and replaced with fresh media [1 mL, RPMI (A431, H460, HeLa, Bx-PC3, MDA-MB-231) or DMEM (U251) supplemented with 5% heat-inactivated human serum, penicillin (100 units/mL), and streptomycin (0.1 mg/mL)] containing enamine N-oxide probe (200 mM in ethanol; 10 μM final concentration). Plates were then incubated at 37° C. under ambient (20% pO2) or various oxygenated conditions (5%, 1%, or 0.1% pO2) with 5% CO2. […] The protein concentration was determined by BCA assay following the manufacturer's protocol (Pierce). […] The dried pellet was then resuspended in an SDS solution (50 μL, 1% SDS in 50 mM Tris, pH 8.0), and the protein concentration was determined by BCA assay. […] In-gel fluorescence was visualized by a laser scanner (Typhoon™ FLA 9500, GE) and quantified using ImageJ software. […] Detection was mediated by an anti-rabbit IR680-dye conjugated secondary antibody (LI-COR Biosciences, 925-68071) and imaged using a fluorescence scanner (Odyssey CLx, LI-COR Biosciences).

## C#CCCCCC(F)/C=C/[N+]([O-])(CC)CC (stereo not shown) [probe 39, (E)-N,N-diethyl-3-fluoronon-1-en-8-yn-1-amine oxide]
  labeling profile (hypoxic vs normoxic): hypoxia selectivity
